Experimental data from patent publication US11091428B2 (HAPLOGEN GMBH, priority 2016, dated 2021).

Tests used:
[1] = target: T1, PLA2G16 (Homo sapiens, UniProt P53816); test: Enzyme activity assay for PLA2G16 (Red/Green BODIPY PC-A2 fluorescence); type: biochemical; conditions: His-tagged PLA2G16, 4 min pre-incubation, 2 nM to 50 μM; read-out: IC50 values of the compounds determined in the enzyme activity assay for PLA2G16
T1 construct: Hexa-His (N); made in house; host or cells: E. coli BL21(DE3)
T1 sequence (P53816 1-162): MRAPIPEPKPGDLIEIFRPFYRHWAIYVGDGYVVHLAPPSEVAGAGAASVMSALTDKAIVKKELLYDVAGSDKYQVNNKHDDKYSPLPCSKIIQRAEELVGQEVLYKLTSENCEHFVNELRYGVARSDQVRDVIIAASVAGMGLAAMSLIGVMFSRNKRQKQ
Summary of the method: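 IC50 from non-linear fits of fluorescence rise (480/530 nm, 10 min) after adding Red/Green BODIPY PC-A2 mixed with DOPC/DOPG/cholesterol liposomes. Recombinant His-tagged human enzyme, bacterially expressed, was first exposed to inhibitor (2 nM–50 μM final) for 4 min in 50 mM Tris pH 8.5, 100 mM NaCl, 5 mM glutathione.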

[2] = test system: picornaviruses (CVB1, HRV-A2, HRV-A23, EV-68); test: Anti-picornavirus cytopathic effect (CPE) reduction assay on HeLa H1 cells; type: cell-based; conditions: Enterovirus B, HeLa H1, 48 h, HeLa H1 cells, 48 h, category from averaging the EC50 values from four picornaviruses (CVB1, HRV-A2, HRV-A23, EV68); read-out: EC50 values of the compounds determined in the anti-picornavirus assay
Method: The antiviral activity of selected compounds was tested using a cytopathic effect (CPE) reduction assay on HeLa H1 cells (ATCC CRL-1958). Briefly, cells were seeded in 96-well dishes (2×10^4 cells/well) in DMEM medium (Life technologies) supplemented with 10% FBS and PenStrep solution (100 U/mL Penicillin and 100 μg/mL streptomycin) and incubated at 37° C., 5% CO2 ovemight. The next day, cells were pre-treated with serial dilutions of the compound in DMEM medium supplemented with 2% FBS and PenStrep for 2 h at 37° C., 5% CO2. Next, cells were infected with virus (CVB1, HRV-A2, HRV-A23, EV-68) at an multiplicity of infection (MOI) which results in a complete virus-induced CPE within 2 days in control wells (infected and vehicle-treated). After 48 h, supematants were aspirated and 50 μl/well of CellTiterBlue reagent (Promega) diluted 1:5 in DMEM+2% FBS, was added to the cells. Plates were returned to the incubator and allowed to develop for 1.5 h. After that, plates were equilibrated to RT and subsequently, fluorescence was recorded (Excitation wavelength: 560 nm; emission wavelength: 590 nm) using a SpectraMax M5 multimode plate reader. Viability of cells was calculated according to the formula: V=(RFUCpd−RFUVeh/(RFUM−RFUVeh), where RFUCpd refers to infected and compound-treated cells, RFUVeh to infected and vehicle-treated cells and RFUM to uninfected and vehicle treated cells. Half-maximal effective concentrations (EC50) were calculated by non-linear regression analysis using the drc package in R (R Development. Core Team, 2005). EC50 categories as presented in Table 2 were calculated by averaging the EC50 values from four picornaviruses (CVB1, HRV-A2, HRV-A23, EV68).

SMILES: CCNC(=O)C(=O)[C@H]1CCC(=O)N1Cc1ccc(Cl)cc1 [FP 285, 2-[(2R)-1-[(4-Chlorophenyl)methyl]-5-oxopyrrolidin-2-yl]-N-ethyl-2-oxoacetamide]
- IC50 [1]: < 1000 nM
- EC50 [2]: < 1000 nM

SMILES: COc1ccccc1N(C=O)C(C)C(=O)C(=O)NCc1ccncc1 (stereo not shown) [FP 90, 3-[N-(2-Methoxyphenyl)formamido]-2-oxo-N-[(pyridin-4-yl)methyl]butanamide]
- IC50 [1]: < 1000 nM
- EC50 [2]: > 10000 nM

SMILES: COc1ccccc1N(C(=O)C(C)C)C(C)C(=O)C(=O)NCc1cccc(Cl)c1 (stereo not shown) [FP 142, N-[(3-Chlorophenyl)methyl]-3-[N-(2-methoxyphenyl)-2-methylpropanamido]-2-oxobutanamide]
- IC50 [1]: < 1000 nM
- EC50 [2]: 1000 to 10000 nM

SMILES: CC(C(=O)C(=O)NCC1CCC1)N(C=O)Cc1ccccc1 (stereo not shown) [FP 201, 3-(N-Benzylformamido)-N-(cyclobutylmethyl)-2-oxobutanamide]
- IC50 [1]: < 1000 nM
- EC50 [2]: < 1000 nM

SMILES: CC(C)C(NC(=O)c1ccccc1)C(=O)C(=O)NCC1CC1 (stereo not shown) [FP 165, N-(Cyclopropylmethyl)-4-methyl-2-oxo-3-(phenylformamido)pentanamide]
- IC50 [1]: < 1000 nM
- EC50 [2]: > 10000 nM

SMILES: COc1ccccc1N(C=O)C(C)C(=O)C(=O)NC(C)(C)C (stereo not shown) [FP 75, N-tert-Butyl-3-[N-(2-methoxyphenyl)formamido]-2-oxobutanamide]
- IC50 [1]: < 1000 nM
- EC50 [2]: 1000 to 10000 nM

SMILES: CNC(=O)C(=O)[C@H]1CCC(=O)N1Cc1ccc(Cl)cc1 [FP 283, 2-[(2R)-1-[(4-Chlorophenyl)methyl]-5-oxopyrrolidin-2-yl]-N-methyl-2-oxoacetamide]
- IC50 [1]: < 1000 nM
- EC50 [2]: 1000 to 10000 nM

SMILES: CC(C)NC(=O)C(=O)C(C)OCc1ccccc1 (stereo not shown) [FP 136, 3-(Benzyloxy)-2-oxo-N-(propan-2-yl)butanamide]
- IC50 [1]: < 1000 nM
- EC50 [2]: < 1000 nM

SMILES: O=C(N[C@H]1CCCC[C@H]1O)C(=O)[C@H]1CCC(=O)N1Cc1ccccc1 (single isomer, unassigned) [FP 273]
- IC50 [1]: 1000 to 10000 nM
- EC50 [2]: 1000 to 10000 nM

SMILES: O=CN(CC(=O)C(=O)NCC1CC1)Cc1ccccc1 [FP 193, 3-(N-Benzylformamido)-N-(cyclopropylmethyl)-2-oxopropanamide]
- IC50 [1]: < 1000 nM
- EC50 [2]: < 1000 nM

SMILES: CCCNC(=O)C(=O)[C@H]1CCC(=O)N1Cc1ccccc1 [FP 288, 2-[(2R)-1-Benzyl-5-oxopyrrolidin-2-yl]-2-oxo-N-propylacetamide]
- IC50 [1]: < 1000 nM
- EC50 [2]: < 1000 nM

SMILES: O=C(COCc1ccccc1)C(=O)NCC1CC1 [FP 128, 3-(Benzyloxy)-N-(cyclopropylmethyl)-2-oxopropanamide]
- IC50 [1]: < 1000 nM
- EC50 [2]: < 1000 nM

SMILES: O=C(NCC1CC1)C(=O)C1CCC(=O)N1Cc1ccccc1 (stereo not shown) [FP 138, 2-(1-Benzyl-5-oxopyrrolidin-2-yl)-N-(cyclopropylmethyl)-2-oxoacetamide]
- IC50 [1]: < 1000 nM
- EC50 [2]: < 1000 nM

SMILES: O=C(NC1CC(F)C1)C(=O)[C@H]1CCC(=O)N1Cc1ccccc1 (stereo partly drawn) [FP 294, 2-[(2R)-1-Benzyl-5-oxopyrrolidin-2-yl]-N-(3-fluorocyclobutyl)-2-oxoacetamide]
- IC50 [1]: < 1000 nM
- EC50 [2]: < 1000 nM

SMILES: O=C(NC1CC2(COC2)C1)C(=O)[C@H]1CCC(=O)N1Cc1ccccc1 [FP 297, 2-[(2R)-1-Benzyl-5-oxopyrrolidin-2-yl]-N-{2-oxaspiro[3.3]heptan-6-yl}-2-oxoacetamide]
- IC50 [1]: < 1000 nM
- EC50 [2]: 1000 to 10000 nM

SMILES: CC(C(=O)C(=O)NCCC1CCOCC1)N(C=O)C1CCCCC1 (stereo not shown) [FP 112, 3-(N-Cyclohexylformamido)-N-[2-(oxan-4-yl)ethyl]-2-oxobutanamide]
- IC50 [1]: < 1000 nM
- EC50 [2]: 1000 to 10000 nM

SMILES: COc1ccccc1N(C=O)CCC(=O)C(=O)NCc1cccc(Cl)c1 [FP 115, N-[(3-Chlorophenyl)methyl]-4-[N-(2-methoxyphenyl)formamido]-2-oxobutanamide]
- IC50 [1]: < 1000 nM
- EC50 [2]: 1000 to 10000 nM

SMILES: CC(C)CNC(=O)C(=O)C(C)N(C=O)Cc1ccccc1 (stereo not shown) [FP 47, 3-(N-Benzylformamido)-N-(2-methylpropyl)-2-oxobutanamide]
- IC50 [1]: < 1000 nM
- EC50 [2]: 1000 to 10000 nM

SMILES: CC(C(=O)C(=O)NCc1cccc(Cl)c1)N(C=O)CC(C)(C)C (stereo not shown) [FP 23, N-[(3-Chlorophenyl)methyl]-3-[N-(2,2-dimethylpropyl)formamido]-2-oxobutanamide]
- IC50 [1]: < 1000 nM
- EC50 [2]: < 1000 nM

SMILES: C[C@@H]1CC(=O)N(Cc2ccccc2)[C@H]1C(=O)C(=O)NC1CC1 (single isomer, unassigned) [FP 340]
- IC50 [1]: < 1000 nM
- EC50 [2]: < 1000 nM

SMILES: O=C(NCCc1ccncc1)C(=O)C1CCC(=O)N1Cc1ccccc1 (stereo not shown) [FP 226, 2-(1-Benzyl-5-oxopyrrolidin-2-yl)-2-oxo-N-[2-(pyridin-4-yl)ethyl]acetamide]
- IC50 [1]: < 1000 nM
- EC50 [2]: 1000 to 10000 nM

SMILES: CC(NC(=O)C1CC(F)(F)C1)C(=O)C(=O)NCC1CC1 (stereo not shown) [FP 174, N-(Cyclopropylmethyl)-3-[(3,3-difluorocyclobutyl)formamido]-2-oxobutanamide]
- IC50 [1]: 1000 to 10000 nM
- EC50 [2]: > 10000 nM

SMILES: O=C(NCC1CCCCC1)C(=O)C1CCC(=O)N1Cc1nccs1 (stereo not shown) [FP 311]
- IC50 [1]: < 1000 nM
- EC50 [2]: < 1000 nM

SMILES: O=CN(Cc1ccccc1)C(C(=O)C(=O)NCC1CC1)C1CC1 (stereo not shown) [FP 67, 3-(N-Benzylformamido)-3-cyclopropyl-N-(cyclopropylmethyl)-2-oxopropanamide]
- IC50 [1]: < 1000 nM
- EC50 [2]: < 1000 nM

SMILES: CC(=O)NCCOCCOCCNC(=O)C(=O)C1CCC(=O)N1Cc1ccc(Cl)cc1 (stereo not shown) [FP 327, 2-{1-[(4-Chlorophenyl)methyl]-5-oxopyrrolidin-2-yl}-N-{2-[2-(2-acetamidoethoxy)-ethoxy]ethyl}-2-oxoacetamide]
- IC50 [1]: 1000 to 10000 nM
- EC50 [2]: > 10000 nM

SMILES: CC(C(=O)C(=O)NCC1CC1)N(C)S(=O)(=O)c1ccccc1 (stereo not shown) [FP 221, N-(Cyclopropylmethyl)-3-(N-methylbenzenesulfonamido)-2-oxobutanamide]
- IC50 [1]: < 1000 nM
- EC50 [2]: > 10000 nM

SMILES: CC(NC(=O)c1ccccc1)C(=O)C(=O)NCC1CCCCC1 (stereo not shown) [FP 179, N-(Cyclohexylmethyl)-2-oxo-3-(phenylformamido)butanamide]
- IC50 [1]: < 1000 nM
- EC50 [2]: < 1000 nM

SMILES: CC(OCC1CC1)C(=O)C(=O)NCC1CC1 (stereo not shown) [FP 134, 3-(Cyclopropylmethoxy)-N-(cyclopropylmethyl)-2-oxobutanamide]
- IC50 [1]: < 1000 nM
- EC50 [2]: 1000 to 10000 nM

SMILES: CCC(C(=O)C(=O)NCC1CCCCC1)N(C=O)C1CCCCC1 (stereo not shown) [FP 60, 3-(N-Cyclohexylformamido)-N-(cyclohexylmethyl)-2-oxopentanamide]
- IC50 [1]: < 1000 nM
- EC50 [2]: 1000 to 10000 nM

SMILES: CC(C(=O)C(=O)NCC1CC1)N(C=O)CC1CCN(C(=O)OC(C)(C)C)CC1 (stereo not shown) [FP 39, tert-Butyl 4-[(N-{1-[(cyclopropylmethyl)carbamoyl]-1-oxopropan-2-yl}formamido)methyl]piperidine-1-carboxylate]
- IC50 [1]: 1000 to 10000 nM
- EC50 [2]: > 10000 nM

SMILES: CCC(NC(=O)c1cnccc1C)C(=O)C(=O)NCC1CCCCC1 (stereo not shown) [FP 211, N-(Cyclohexylmethyl)-3-[(4-methylpyridin-3-yl)formamido]-2-oxopentanamide]
- IC50 [1]: < 1000 nM
- EC50 [2]: 1000 to 10000 nM

SMILES: CC(C)[C@H](C(=O)C(=O)NCC1CC1)N(C=O)CC(C)(C)C (single isomer, unassigned) [FP 32]
- IC50 [1]: < 1000 nM
- EC50 [2]: > 10000 nM
